Experimental data reported in US5827827A, “HIV-1 protease inhibitors” (The Scripps Research Institute, priority 1996, dated 1998).

Columns and labels:
HIV-1 protease = biological target: T1, HIV-1 protease (Human immunodeficiency virus type 1 group M subtype B, UniProt P03369); test: HIV-1 PR inhibition (HPLC assay of HIV substrate IV cleavage after preincubation with inhibitor); type: biochemical
T1 construct: each of the identical 99 amino acid subunits contributes a single aspartyl residue to the catalytic site; made in house; host or cells: chemical synthesis (no expression host); obtained from Dr. Stephen Kent, The Scripps Research Institute
Experimental: Typical reactions were carried out at room temperature (25° C.) in 150 μl total volumes of 100 mM MES buffer, pH 6.2, containing 1 mM ethylenediaminetetraacetic acid (EDTA) and 2 mM dithiothreitol (DTT) plus 0.1 percent (v/v) Triton X-100.
Synthetic HIV-1 protease [0.5 μg, obtained from Dr. Stephen Kent of The Scripps Research Institute; see Cell, 1988, 54; 363-368] was first incubated in buffer with (or without) various concentrations of "inhibitor(s)" for 30 minutes at 25° C. The protease reaction was then initiated by the addition of HIV substrate IV (Bachem Bioscience Inc.) at fixed concentrations (e.g., 100 mg/ml). HIV Substrate IV has the sequence
Lys-Ala-Arg-Val-Nle-p-NO2 Phe-glu-Ala-Nle-NH2 (SEQ ID NO 15)
At three appropriate times (normally 40, 80 and 120 minutes) the hydrolysis was stopped by adding a 40 μl aliquot from the reaction to 40 μl of a prepared quench solution. The quench solution was 1:4 acetonitrile:water (3 percent trifluoroacetic acid; TFA) and contained 150 μM m-toluic acid which served as an HPLC standard. […] Reaction progress was monitored by following the increasing absorbance (peak height) of the substrate IV cleavage product detected at […]. […]

HIV-2 PR = conditions: Blumenstein et al. 1989; cited from earlier work
HIV-1 PR = conditions: Blumenstein et al. 1989; cited from earlier work

Row | Structure (SMILES) | t1/2 of inactivation of the protease (HIV-1 protease; 2 mM inhibitor, preincubation, 25° C., pH 6.2) [h] | mode of inhibition of HIV-1 PR (HIV-1 protease; preincubation with 2 mM inhibitor (FIG. 1)) | inhibition of HIV-2 PR (HIV-2 PR) | inhibition of HIV-1 PR (HIV-1 PR)
1 | CC(C)(C)OC(=O)N[C@@H](Cc1ccccc1)C1(C)CO1 (stereo partly shown) [Example 2] | 3 | competitive and timedependent inactivation |  | 
2 | C/C=C/C/C=C/CCC(=O)[C@H]1O[C@H]1C(N)=O [cerulenin] |  |  | weakly inhibit | weakly inhibit
